Columns and labels:
[1] = target: T1, catalytic subunit of cAMP dependent protein kinase A (PKA) (Bos taurus, UniProt P00517); experiment: Homogeneous PKA kinase assay: thiophosphorylation, biotinylation, fluorescence polarization with streptavidin; format: biochemical
T1 construct: purchased Promega Corp. V5161
Method: A typical reaction mixture (50 μl) contained 20 mM HEPES pH 7.5, 10 mM MgCl2, 50 μM fluorescein labeled Kemptide (Research Genetics, Huntsville, Ala., USA), 500 μM ATPγS (Sigma, St. Louis, Mo., USA, #A-1388), and 1 μl of the catalytic subunit of cAMP dependent protein kinase A (Promega Corp., Madison, Wis., USA, #V5161). The approximate final concentration of the enzyme was 700 nM. […] The mixture was incubated at room temperature for 15 min and the reaction terminated by the addition of EDTA to 45 mM. As a negative control, EDTA was added to one of the reaction mixtures before the addition of the kinase. The extent of thiophosphorylation was then analyzed by capillary electrophoresis with fluorescence detection either on a Beckman P/ACE System 5500 instrument, using a 50 μm fused silica capillary with 50 mM borate, pH 8.6 as the separation buffer, or on a microfabricated chip as described in Cohen et al., Anal. Chem. 273:89-97 (1999). Substrate and product peak areas were integrated and the extent of substrate phosphorylation was determined from their ratio. […] The outcome of the biotinylation reaction could be determined at this point by capillary electrophoresis as described above, however, this is not required, nor is it preferred. […] An aliquot (1 μl) of the biotinylation reaction from step B was diluted in 400 μl of 50 mM HEPES, pH 7.4 and its fluorescence polarization measured. […]

[2] = target: PKA (Bos taurus, UniProt P00517); experiment: PKA assays at different ATPγS concentrations on a microchip; format: biochemical; settings: read-out: Km (Michaelis-Menten constant for the co-factor)
Method: A typical reaction mixture (50 μl) contained 20 mM HEPES pH 7.5, 10 mM MgCl2, 50 μM fluorescein labeled Kemptide (Research Genetics, Huntsville, Ala., USA), 500 μM ATPγS (Sigma, St. Louis, Mo., USA, #A-1388), and 1 μl of the catalytic subunit of cAMP dependent protein kinase A (Promega Corp., Madison, Wis., USA, #V5161). The approximate final concentration of the enzyme was 700 nM. […] The mixture was incubated at room temperature for 15 min and the reaction terminated by the addition of EDTA to 45 mM. As a negative control, EDTA was added to one of the reaction mixtures before the addition of the kinase. The extent of thiophosphorylation was then analyzed by capillary electrophoresis with fluorescence detection either on a Beckman P/ACE System 5500 instrument, using a 50 μm fused silica capillary with 50 mM borate, pH 8.6 as the separation buffer, or on a microfabricated chip as described in Cohen et al., Anal. Chem. 273:89-97 (1999). Substrate and product peak areas were integrated and the extent of substrate phosphorylation was determined from their ratio.
Following a 15-min incubation, the reactions were stopped by the addition of EDTA, treated with iodoacetyl-LC-biotin, and analyzed by fluorescence polarization in the presence of streptavidin. […]

O=S(=O)(NCCNC/C=C/c1ccc(Br)cc1)c1cccc2cnccc12 [H-89]
IC50 ([1]; H-89 0.5-10 μM, 500 μM ATPγS, 50 μM fluorescein labeled Kemptide, 15-min incubation at room temperature, estimated from substrate conversion): ~5000 nM
Ki ([1]; calculated from IC50=Ki(1+[S]/Km), ATPγS 500 μM, Km about 6 μM): ~60 nM

Nc1ncnc2c1ncn2[C@@H]1O[C@H](COP(=O)(O)OP(=O)(O)OP(O)(O)=S)[C@@H](O)[C@H]1O [ATPγS]
Km [2]: ~6 µM

From US6498005B1, “Homogeneous assay methods” (Caliper Technologies Corp., priority 1998, dated 2002)
